Reference: ChEMBL document CHEMBL1201862, “PubChem BioAssay data set” (2004)
Activity calls are given as the source filed them.

Legend:
SUMO E1/E2 = SUMO E1/E2 (Homo sapiens, UniProt P63279+Q9UBE0+Q9UBT2); test: SAR analysis of SUMOylation using HTRF in an in-Vitro dose response assay. [Related pubchem assays (depositor defined):AID2006, AID2011, AID2018, AID2069, AID2658]; format: functional
[1] = target: Protein-tyrosine kinase 2-beta (Homo sapiens, UniProt Q14289);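 note: potency of inhibitors of PYK2 kinase phosphorylation of poly-GT substrate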
Sequence of Protein-tyrosine kinase 2-beta (Q14289 whole entry): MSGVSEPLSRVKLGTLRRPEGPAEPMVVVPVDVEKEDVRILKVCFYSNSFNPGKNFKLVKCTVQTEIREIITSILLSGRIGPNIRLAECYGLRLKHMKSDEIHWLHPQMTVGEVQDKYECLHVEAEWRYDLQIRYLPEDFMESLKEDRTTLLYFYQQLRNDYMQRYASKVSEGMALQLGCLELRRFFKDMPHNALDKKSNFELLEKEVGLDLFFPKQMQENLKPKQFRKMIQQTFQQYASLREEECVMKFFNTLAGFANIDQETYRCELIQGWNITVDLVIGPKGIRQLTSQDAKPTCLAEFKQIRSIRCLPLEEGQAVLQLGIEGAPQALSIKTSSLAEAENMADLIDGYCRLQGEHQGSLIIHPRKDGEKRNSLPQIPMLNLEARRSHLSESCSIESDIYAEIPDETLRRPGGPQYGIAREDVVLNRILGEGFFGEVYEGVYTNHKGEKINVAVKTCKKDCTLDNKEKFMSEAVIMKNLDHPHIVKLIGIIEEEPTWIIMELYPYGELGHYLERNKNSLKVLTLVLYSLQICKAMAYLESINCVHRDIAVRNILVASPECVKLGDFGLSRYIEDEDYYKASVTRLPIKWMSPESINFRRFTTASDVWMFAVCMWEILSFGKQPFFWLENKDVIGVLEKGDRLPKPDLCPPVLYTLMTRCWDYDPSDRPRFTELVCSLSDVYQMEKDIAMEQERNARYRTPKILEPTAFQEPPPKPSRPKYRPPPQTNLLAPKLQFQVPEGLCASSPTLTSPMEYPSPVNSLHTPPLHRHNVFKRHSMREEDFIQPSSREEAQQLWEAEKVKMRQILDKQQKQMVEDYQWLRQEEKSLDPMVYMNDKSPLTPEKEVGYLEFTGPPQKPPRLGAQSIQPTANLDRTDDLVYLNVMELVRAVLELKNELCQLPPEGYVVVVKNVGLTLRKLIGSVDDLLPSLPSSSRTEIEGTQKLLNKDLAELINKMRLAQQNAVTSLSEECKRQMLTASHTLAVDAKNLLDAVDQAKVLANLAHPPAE

Cysteine protease ATG4B = target: T1, Cysteine protease ATG4B (Homo sapiens, UniProt Q9Y4P1); format: functional;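 note: Fluorescence-based dose-response confirmation assay measuring inhibition of ATG4B activity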
T1 sequence (Q9Y4P1 whole entry): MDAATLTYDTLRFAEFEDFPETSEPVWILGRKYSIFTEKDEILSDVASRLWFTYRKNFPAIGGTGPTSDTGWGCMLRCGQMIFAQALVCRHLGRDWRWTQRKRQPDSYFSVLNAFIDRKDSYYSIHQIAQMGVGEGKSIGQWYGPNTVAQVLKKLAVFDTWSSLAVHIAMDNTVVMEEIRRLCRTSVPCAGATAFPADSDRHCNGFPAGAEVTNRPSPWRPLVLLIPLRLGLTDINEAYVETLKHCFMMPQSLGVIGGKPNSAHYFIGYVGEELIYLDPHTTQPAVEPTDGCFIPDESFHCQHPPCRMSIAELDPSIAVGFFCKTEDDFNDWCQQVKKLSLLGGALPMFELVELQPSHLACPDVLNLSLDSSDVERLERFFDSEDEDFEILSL

Caspase-3 = target: T2, Caspase-3 (Homo sapiens, UniProt P42574); format: functional;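 note: Dose-response selectivity test against caspase-3 for candidate inhibitors of sentrin-specific proteases (SENPs)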
T2 sequence (P42574 whole entry): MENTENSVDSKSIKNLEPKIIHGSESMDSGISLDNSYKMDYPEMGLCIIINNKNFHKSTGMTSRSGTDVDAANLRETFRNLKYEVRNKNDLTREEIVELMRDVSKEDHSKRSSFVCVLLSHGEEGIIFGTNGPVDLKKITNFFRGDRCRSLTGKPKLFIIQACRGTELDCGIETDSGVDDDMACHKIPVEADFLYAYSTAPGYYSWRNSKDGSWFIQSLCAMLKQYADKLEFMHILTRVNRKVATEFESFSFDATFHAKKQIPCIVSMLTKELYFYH

[2] = target: Serine/threonine-protein phosphatase PP1-alpha catalytic subunit (Homo sapiens, UniProt P62136); test: PP1 phosphatase inhibitors, dose response, biochemical, fluorescence (AID 2394)
Large T antigen = Large T antigen (Simian virus 40, UniProt P03070); format: functional, Betapolyomavirus macacae;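 note: Confirmatory-stage PubChem screen for compounds that inhibit SV40 T antigen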
Sequence of Large T antigen (P03070 whole entry): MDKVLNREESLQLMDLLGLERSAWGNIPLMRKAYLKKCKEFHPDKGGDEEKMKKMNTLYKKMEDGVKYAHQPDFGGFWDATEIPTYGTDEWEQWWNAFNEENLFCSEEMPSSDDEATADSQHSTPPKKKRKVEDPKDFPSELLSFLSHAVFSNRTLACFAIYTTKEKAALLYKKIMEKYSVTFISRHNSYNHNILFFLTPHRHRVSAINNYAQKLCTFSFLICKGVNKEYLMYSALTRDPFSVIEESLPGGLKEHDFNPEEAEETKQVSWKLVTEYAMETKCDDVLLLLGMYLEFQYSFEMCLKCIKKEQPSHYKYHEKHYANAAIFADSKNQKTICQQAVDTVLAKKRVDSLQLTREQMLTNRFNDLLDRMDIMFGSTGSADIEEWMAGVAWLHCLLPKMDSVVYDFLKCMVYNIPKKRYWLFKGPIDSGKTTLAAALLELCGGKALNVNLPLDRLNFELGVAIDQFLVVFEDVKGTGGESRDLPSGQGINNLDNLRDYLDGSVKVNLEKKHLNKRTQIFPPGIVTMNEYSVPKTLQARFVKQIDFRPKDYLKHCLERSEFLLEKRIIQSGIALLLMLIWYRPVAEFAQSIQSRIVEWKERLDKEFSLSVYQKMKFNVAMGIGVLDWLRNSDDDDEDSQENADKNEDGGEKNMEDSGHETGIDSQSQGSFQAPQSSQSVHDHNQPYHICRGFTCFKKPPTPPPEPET

[3] = target: Voltage-gated N-type calcium channel alpha-1B subunit/Amyloid beta A4 precursor protein-binding family A member 1 (Homo sapiens, UniProt Q00975+Q02410); format: protein assay
Sequence of Voltage-gated N-type calcium channel alpha-1B subunit/Amyloid beta A4 precursor protein-binding family A member 1 (Q00975 whole entry): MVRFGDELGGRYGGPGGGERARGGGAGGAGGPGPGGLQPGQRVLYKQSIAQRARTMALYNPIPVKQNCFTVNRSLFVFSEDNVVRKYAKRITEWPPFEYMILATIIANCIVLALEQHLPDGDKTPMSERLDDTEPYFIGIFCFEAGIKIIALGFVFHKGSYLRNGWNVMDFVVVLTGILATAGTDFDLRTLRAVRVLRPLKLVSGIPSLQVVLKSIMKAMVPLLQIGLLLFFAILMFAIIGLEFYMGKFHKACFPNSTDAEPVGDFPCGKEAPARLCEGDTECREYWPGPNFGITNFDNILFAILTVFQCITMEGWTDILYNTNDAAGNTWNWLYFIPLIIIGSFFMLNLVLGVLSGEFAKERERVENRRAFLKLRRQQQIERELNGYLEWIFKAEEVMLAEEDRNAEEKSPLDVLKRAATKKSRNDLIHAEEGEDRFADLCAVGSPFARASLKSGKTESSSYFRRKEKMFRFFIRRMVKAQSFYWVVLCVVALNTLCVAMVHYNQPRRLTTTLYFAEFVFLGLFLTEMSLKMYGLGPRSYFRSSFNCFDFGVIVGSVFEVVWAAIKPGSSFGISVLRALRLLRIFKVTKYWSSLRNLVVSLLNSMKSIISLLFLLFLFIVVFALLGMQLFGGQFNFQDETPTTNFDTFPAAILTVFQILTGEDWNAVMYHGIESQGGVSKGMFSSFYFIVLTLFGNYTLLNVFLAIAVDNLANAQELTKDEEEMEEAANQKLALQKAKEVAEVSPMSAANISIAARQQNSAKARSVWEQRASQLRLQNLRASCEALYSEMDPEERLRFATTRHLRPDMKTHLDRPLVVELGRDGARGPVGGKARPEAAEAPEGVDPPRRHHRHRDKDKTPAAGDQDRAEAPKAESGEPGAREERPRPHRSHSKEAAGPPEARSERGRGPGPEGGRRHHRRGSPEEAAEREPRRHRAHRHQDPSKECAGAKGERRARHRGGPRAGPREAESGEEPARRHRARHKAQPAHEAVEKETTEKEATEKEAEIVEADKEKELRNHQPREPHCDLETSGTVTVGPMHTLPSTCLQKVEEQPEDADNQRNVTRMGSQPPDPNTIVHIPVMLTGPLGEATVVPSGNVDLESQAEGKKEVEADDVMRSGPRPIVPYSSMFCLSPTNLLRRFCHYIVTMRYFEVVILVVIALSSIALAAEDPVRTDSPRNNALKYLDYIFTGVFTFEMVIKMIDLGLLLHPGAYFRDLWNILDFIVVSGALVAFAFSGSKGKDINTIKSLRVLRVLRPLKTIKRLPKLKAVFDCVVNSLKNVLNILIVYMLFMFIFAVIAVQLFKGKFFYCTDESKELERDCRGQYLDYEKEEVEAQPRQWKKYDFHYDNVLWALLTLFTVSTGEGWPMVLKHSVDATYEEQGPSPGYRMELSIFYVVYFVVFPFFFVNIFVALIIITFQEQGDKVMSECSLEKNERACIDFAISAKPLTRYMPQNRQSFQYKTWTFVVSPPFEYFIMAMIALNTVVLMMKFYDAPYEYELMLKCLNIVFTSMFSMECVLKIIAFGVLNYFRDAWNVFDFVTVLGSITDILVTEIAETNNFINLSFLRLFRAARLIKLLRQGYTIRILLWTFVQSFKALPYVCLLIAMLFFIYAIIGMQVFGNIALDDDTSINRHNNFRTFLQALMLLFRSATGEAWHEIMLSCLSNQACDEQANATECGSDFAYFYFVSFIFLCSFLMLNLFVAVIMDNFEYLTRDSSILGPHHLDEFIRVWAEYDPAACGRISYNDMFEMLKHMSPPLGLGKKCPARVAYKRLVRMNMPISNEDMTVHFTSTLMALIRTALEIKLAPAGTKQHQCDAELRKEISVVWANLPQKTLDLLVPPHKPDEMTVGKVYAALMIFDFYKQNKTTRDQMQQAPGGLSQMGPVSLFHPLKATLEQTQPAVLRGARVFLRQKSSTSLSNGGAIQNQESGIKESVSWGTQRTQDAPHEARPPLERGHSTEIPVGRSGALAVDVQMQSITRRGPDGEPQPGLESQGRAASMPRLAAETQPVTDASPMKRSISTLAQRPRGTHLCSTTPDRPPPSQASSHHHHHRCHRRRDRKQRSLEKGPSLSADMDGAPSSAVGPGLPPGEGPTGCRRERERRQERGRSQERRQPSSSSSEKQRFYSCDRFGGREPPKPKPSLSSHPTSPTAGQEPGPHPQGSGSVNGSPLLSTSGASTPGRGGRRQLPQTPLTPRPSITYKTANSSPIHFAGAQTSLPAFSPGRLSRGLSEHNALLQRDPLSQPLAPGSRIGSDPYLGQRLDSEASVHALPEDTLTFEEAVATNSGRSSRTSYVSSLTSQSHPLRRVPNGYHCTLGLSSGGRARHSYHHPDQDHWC
Sequence of Voltage-gated N-type calcium channel alpha-1B subunit/Amyloid beta A4 precursor protein-binding family A member 1 (Q02410 whole entry): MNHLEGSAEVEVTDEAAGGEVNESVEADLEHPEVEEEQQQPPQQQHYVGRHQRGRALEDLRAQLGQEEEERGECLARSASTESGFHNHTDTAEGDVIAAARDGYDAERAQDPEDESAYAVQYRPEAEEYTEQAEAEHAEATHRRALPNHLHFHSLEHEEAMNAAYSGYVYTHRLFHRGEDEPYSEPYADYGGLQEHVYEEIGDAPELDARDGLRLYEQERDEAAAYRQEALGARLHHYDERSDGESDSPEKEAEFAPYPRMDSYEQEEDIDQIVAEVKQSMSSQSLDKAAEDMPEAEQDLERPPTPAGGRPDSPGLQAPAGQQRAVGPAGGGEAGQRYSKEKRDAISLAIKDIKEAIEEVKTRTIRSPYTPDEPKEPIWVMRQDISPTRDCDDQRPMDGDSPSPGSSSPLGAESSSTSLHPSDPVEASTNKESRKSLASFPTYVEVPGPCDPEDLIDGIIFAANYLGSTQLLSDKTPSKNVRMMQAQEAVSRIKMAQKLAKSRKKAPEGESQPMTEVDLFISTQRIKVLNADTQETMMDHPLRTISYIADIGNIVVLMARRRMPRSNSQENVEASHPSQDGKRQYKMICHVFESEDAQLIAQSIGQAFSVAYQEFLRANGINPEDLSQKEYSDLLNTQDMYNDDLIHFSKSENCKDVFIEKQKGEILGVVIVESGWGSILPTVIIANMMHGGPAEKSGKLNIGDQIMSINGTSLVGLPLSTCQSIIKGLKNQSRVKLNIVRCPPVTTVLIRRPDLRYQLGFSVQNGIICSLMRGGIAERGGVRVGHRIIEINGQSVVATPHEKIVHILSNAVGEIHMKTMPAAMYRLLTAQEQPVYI

Insulin-degrading enzyme = target: T3, Insulin-degrading enzyme (Homo sapiens, UniProt P14735); test: activators of recombinant IDE enzyme, dose response, counter-screen for IDE activator project, biochemical, fluorescence polarization (AID 588681)
T3 sequence (P14735 whole entry): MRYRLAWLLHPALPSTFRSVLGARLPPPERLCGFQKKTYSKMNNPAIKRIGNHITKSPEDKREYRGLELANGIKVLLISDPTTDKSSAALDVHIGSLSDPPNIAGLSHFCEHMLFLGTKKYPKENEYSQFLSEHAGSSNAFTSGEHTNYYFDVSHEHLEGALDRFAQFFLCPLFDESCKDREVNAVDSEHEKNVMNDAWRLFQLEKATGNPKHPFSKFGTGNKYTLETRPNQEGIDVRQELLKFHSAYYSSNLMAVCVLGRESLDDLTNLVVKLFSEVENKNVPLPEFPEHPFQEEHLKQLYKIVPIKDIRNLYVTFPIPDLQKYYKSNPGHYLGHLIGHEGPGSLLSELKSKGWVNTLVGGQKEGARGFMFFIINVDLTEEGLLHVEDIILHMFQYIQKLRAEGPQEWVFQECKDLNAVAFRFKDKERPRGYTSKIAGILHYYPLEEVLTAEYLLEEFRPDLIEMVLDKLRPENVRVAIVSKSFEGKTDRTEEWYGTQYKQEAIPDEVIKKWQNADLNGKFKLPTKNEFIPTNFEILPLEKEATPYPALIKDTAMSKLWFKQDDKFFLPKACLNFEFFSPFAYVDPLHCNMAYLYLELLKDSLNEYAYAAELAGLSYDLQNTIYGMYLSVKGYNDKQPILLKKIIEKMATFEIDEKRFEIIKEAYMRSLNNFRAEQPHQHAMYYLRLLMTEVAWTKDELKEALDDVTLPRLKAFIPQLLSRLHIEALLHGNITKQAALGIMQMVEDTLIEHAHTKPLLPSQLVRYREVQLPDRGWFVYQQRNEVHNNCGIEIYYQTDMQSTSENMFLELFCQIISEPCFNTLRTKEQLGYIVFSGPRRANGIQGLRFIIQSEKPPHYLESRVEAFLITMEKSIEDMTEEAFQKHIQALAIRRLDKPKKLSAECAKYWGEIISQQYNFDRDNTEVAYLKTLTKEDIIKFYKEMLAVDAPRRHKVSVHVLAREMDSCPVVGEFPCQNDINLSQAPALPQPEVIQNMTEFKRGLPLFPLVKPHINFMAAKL

[4] = target: Ras and Rab interactor 1/Tyrosine-protein kinase ABL1 (Homo sapiens, UniProt P00519+Q13671); format: functional;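 note: biochemical TR-FRET dose-response test measuring inhibition of binding between Rin1 and Abl proteins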

## Oc1nc(Nc2ccccc2)cc2ccccc12
SUMO E1/E2
  IC50: 6.32 µM (active)
[1]
  IC50: > 69.5 µM (not active)
Cysteine protease ATG4B
  IC50: 9.22 µM (active)
Caspase-3
  IC50: 1.02 µM (active)
[2]
  IC50: > 67 µM (not active)

## COc1cc(OC)c(-c2c3cc(O)c(=O)cc-3oc3cc(O)c(O)cc23)cc1OC
Large T antigen
  IC50: 1.73 µM (active)
[3]
  IC50: 12.5 µM (active)
Insulin-degrading enzyme
  EC50: > 54.7 µM (inactive)
[4]
  IC50: 0.724 µM (active)
